Details in all cases: 48 h
In assay [1] the test system is NCI-H295R. Briefly: IC50 (antiproliferative, ATP content).
For assay [2], the system named is NCI-H295R. Briefly: maximal response (efficacy) relative to DMSO (0%) and doxorubicin (-100%); higher = less growth inhibition.
Assay [3] relates to NCI-H295R. Briefly: IC50 (antiproliferative, ATP content). A digest of the protocol:
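Following overnight culture of adrenocortical carcinoma cells (1500 per well) in 1536-well plates with serum-free ITS-supplemented DMEM, library compounds were pin-transferred at 8 final concentrations from 0.6 nM to 46 µM. Incubation lasted 48 h at 37 °C, 5% CO2, and the CellTiter-Glo signal was read after 20 min at room temperature. Data were fitted with a four-parameter logistic model. Each IC50 came from that fit after normalisation to vehicle and positive-control wells, and compounds without a concentration response were reported as above the top dose.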
The source holds these as a separate data set.

For 49 molecules, IC50 and maximal response results are on record in the supplement of paper PMC3493320.

Several values for one entry are separate records, joined by “and”; a condition that tells them apart may be missing. Equal values may be shown once.

Turning to `Oc1c(Cl)cc(Cl)cc1Sc1cc(Cl)cc(Cl)c1O`, the IC50 (as a rule, the midpoint of a concentration-inhibition curve) in the assay on NCI-H295R [1] is 13.3 µM. Also, in the assay on NCI-H295R [2], the maximal response was -137%.
Turning to `O=C3O[C@@H]2[C@@H]1O[C@@](C)1CC/C=C(C)/CC[C@H]2[C@@]3=C`, in the assay with NCI-H295R [1], the IC50 is 18.8 µM. Moreover, in the assay with NCI-H295R [2], the maximal response is -138%.
Taken in the same sequence, the figures for `[O-]S(C1=C(O)C(\C(C4=CC=C(N(C)C)C=C4)=C(C=C2)/C=C/C2=[N+](C)\C)=C(C=C3)C(C=C3S([O-])(=O)=O)=C1)(=O)=O.[Na+]` were 11.9 µM and -103%.
Taken in the same sequence, the figures for `CC[C@@H](C(=O)O)[C@@H]1O[C@@H]([C@@H](C)[C@H](O)[C@H](C)C(=O)[C@H](CC)[C@H]2O[C@]3(C=C[C@@H](O)[C@]4(CC[C@@](C)([C@H]5CC[C@](O)(CC)[C@H](C)O5)O4)O3)[C@H](C)C[C@@H]2C)[C@@H](C)C[C@@H]1C` were 5.31 µM and -140%.
With `O=C(Nc1ccc([N+](=O)[O-])cc1Cl)c1cc(Cl)ccc1O`, the IC50 with NCI-H295R [1] was found to be 0.531 µM. The maximal response in the assay with NCI-H295R [2] was -94.3%.
The corresponding values for `CO[C@@]12[C@H](COC(N)=O)C3=C(C(=O)C(C)=C(N)C3=O)N1C[C@@H]1N[C@@H]12` are 26.6 µM and -132%.
Taken in the same sequence, the figures for `CC1(CN2CCC(n3c(=O)[nH]c4ccccc43)CC2)OCc2ccccc2-n2cccc21` (configuration not stated) were 26.6 µM and -96.9%.
Regarding `OB(O)[O][Hg][c]1ccccc1`, in the assay on NCI-H295R [1], the half-maximal inhibitory concentration (IC50) is 3.76 µM. The maximal response in the assay on NCI-H295R [2] was -130%.
Taken in the same sequence, the figures for `Oc1c(I)cc(Cl)c2cccnc12` were 8.41 µM and -64.3%.
Taken in the same sequence, the figures for `O=C1C2CC=CCC2C(=O)N1SC(Cl)(Cl)Cl` (configuration not stated) were 16.8 µM and -105%.
`C[n+]1c2cc(N)ccc2cc2ccc(N)cc21.Nc1ccc2cc3ccc(N)cc3nc2c1.[Cl-]` returned an IC50 in the assay on NCI-H295R [1] of 21.1 µM. In addition, the maximal response in the assay with NCI-H295R [2] is -168%.
The corresponding values for `Cc1cc(O)c2c3c4c(cc(O)c13)C(C)(C)C(=O)c1c(O)cc(O)c(c1-4)C2=O` are 3.35 µM and -103%.
Taken in the same sequence, the figures for `O=C(Nc1ccc(Br)cc1)c1cc(Br)cc(Br)c1O` were 5.31 µM and -118%.
Taken in the same sequence, the figures for `COc1cc(N[S+](C)(=O)[O-])ccc1Nc1c2ccccc2nc2ccccc12` were 3.76 µM and -65.5%.
Turning to `CCc1oc2ccccc2c1C(=O)c1cc(I)c(O)c(I)c1`, the IC50 in the assay on NCI-H295R [1] turned out to be 7.5 µM. Also, the maximal response in the assay with NCI-H295R [2] was -101%.
In the assay with NCI-H295R [1], `CCN(CC)CCNc1ccc(CO)c2sc3ccccc3c(=O)c12` showed an IC50 of 7.5 µM. Also, in the assay on NCI-H295R [2], the maximal response was -124%.
In the assay with NCI-H295R [1], `Oc1c(Cl)cc(Cl)c2cccnc12` came in with an IC50 of 5.31 µM. The maximal response in the assay on NCI-H295R [2] is -105%.
As to `CCCCC(=O)OCC(=O)[C@]1(O)Cc2c(O)c3c(c(O)c2[C@@H](O[C@H]2C[C@H](NC(=O)C(F)(F)F)[C@H](O)[C@H](C)O2)C1)C(=O)c1c(OC)cccc1C3=O`, in the assay on NCI-H295R [1], the IC50 amounted to 13.3 µM. For the same molecule, the maximal response in the assay with NCI-H295R [2] was -71.8%.
Taken in the same sequence, the figures for `Cc1cc(-c2ccc(N=Nc3c(S(=O)(=O)[O-])cc4cc(S(=O)(=O)[O-])cc(N)c4c3O)c(C)c2)ccc1N=Nc1c(S(=O)(=O)[O-])cc2cc(S(=O)(=O)[O-])cc(N)c2c1O.[Na+].[Na+].[Na+].[Na+]` were 11.9 µM and -131%.
In the case of `Cc1cc(/C=C/c2ccc3cc(N(C)C)ccc3[n+]2C)c(C)n1-c1ccccc1.Cc1cc(/C=C/c2ccc3cc(N(C)C)ccc3[n+]2C)c(C)n1-c1ccccc1.O=C([O-])c1cc2ccccc2c(Cc2c(O)c(C(=O)[O-])cc3ccccc23)c1O`, the half-maximal inhibitory concentration (IC50) with NCI-H295R [1] amounted to 7.18 µM. For the same molecule, in the assay with NCI-H295R [2], the maximal response is -69.7%.
The corresponding values for `CC[C@]2(O)CC[C@H]3[C@@H]4CC\C1=C\CCC[C@@H]1[C@H]4CC[C@]23C` are 16.8 µM and -60.8%.
The corresponding values for `CC(C)CCC[C@@H](C)[C@H]1CC(=O)C2=C3CC[C@H]4C[C@@H](O)CC[C@]4(C)[C@H]3CC[C@@]21C` are 8.41 µM and -65%.
Taken in the same sequence, the figures for `COC(C(=O)C(O)C(C)O)C1Cc2cc3cc(OC4CC(OC5CC(O)C(O)C(C)O5)C(O)C(C)O4)c(C)c(O)c3c(O)c2C(=O)C1OC1CC(OC2CC(OC3CC(C)(O)C(O)C(C)O3)C(O)C(C)O2)C(O)C(C)O1` (configuration not stated) were 1.19 µM and -125%.
The molecule `[O-]n1ccccc1=S.[O-]n1ccccc1=S.[Zn+2]` displayed a half-maximal inhibitory concentration (IC50) in the assay on NCI-H295R [1] of 2.66 µM. For the same molecule, the maximal response with NCI-H295R [2] was -125%.
Taken in the same sequence, the figures for `Cl.Nc1c2ccccc2nc2ccccc12.O` were 18.8 µM and -131%.
Take `CC[C@H](C)[C@H]1O[C@]2(CC[C@@H]1C)C[C@@H]1C[C@@H](C/C=C(\C)[C@@H](O[C@H]3C[C@H](OC)[C@@H](O[C@H]4C[C@H](OC)[C@@H](O)[C@H](C)O4)[C@H](C)O3)[C@@H](C)/C=C/C=C3\CO[C@@H]4[C@H](O)C(C)=C[C@@H](C(=O)O1)[C@]34O)O2`: the IC50 in the assay on NCI-H295R [1] was found to be 4.22 µM. Also, in the assay on NCI-H295R [2], the maximal response is -123%.
Taken in the same sequence, the figures for `COC(COC(N)=O)C1=C(N2CC2)C(=O)C(C)=C(N2CC2)C1=O` (configuration not stated) were 0.75 µM and -120%.
Taken in the same sequence, the figures for `C[C@]12O[C@H](C[C@]1(O)CO)n1c3ccccc3c3c4c(c5c6ccccc6n2c5c31)CNC4=O` were 18.8 µM and -150%.
Molecule `O=C(N[C@H](C(N[C@H](C(N[C@@H](C(N[C@H](C(N[C@@H](CCCNC(N)=N)C(N6CCC[C@H]6[C@](NCC)=O)=O)=O)CC(C)C)=O)CC4=CNC5=C4C=CC=C5)=O)CC3=CC=C(O)C=C3)=O)CO)[C@@H](NC([C@@H](N[C@]([C@@H](N8)CCC8=O)=O)CC7=CNC=N7)=O)CC1=CNC2=C1C=CC=C2.O=C(C)O` yielded an IC50 in the assay with NCI-H295R [1] of 5.31 µM. Moreover, the maximal response in the assay on NCI-H295R [2] was -124%.
Taken in the same sequence, the figures for `Nc1nc2nc[nH]c2c(=S)[nH]1` were 1.06 µM and -74.1%.
The corresponding values for `Cl.Cl.Fc1ccc(C(OCCN2CCN(CCCc3ccccc3)CC2)c2ccc(F)cc2)cc1` are 23.7 µM and -154%.
Turning to `CC(C)C[C@H](NC(=O)[C@H](Cc1ccccc1)NC(=O)c1cnccn1)B(O)O`, the 50% inhibitory concentration (IC50) in the assay on NCI-H295R [1] is 0.299 µM and 0.335 µM. In addition, in the assay on NCI-H295R [2], the maximal response was -74.3% and -77.1%.
On to `CC1(COc2ccc(CC3SC(=O)NC3=O)cc2)CCCCC1` (configuration not stated), for which, in the assay on NCI-H295R [1], the IC50 was determined as 26.6 µM. Also, the maximal response in the assay on NCI-H295R [2] was -167%.
The corresponding values for `[O-]C(C(I)=C2)=C(I)C=C2/C(C(C=CC=C3)=C3C([O-])=O)=C1\C=C(I)C(C(I)=C1)=O.[Na+].[Na+]` are 26.6 µM and -104%.
The corresponding values for `Oc1ccc(Cl)cc1Sc1cc(Cl)ccc1O` are 15 µM and -135%.
`Cc1c2oc3c(C)ccc(C(=O)N[C@@H]4C(=O)N[C@H](C(C)C)C(=O)N5CCC[C@H]5C(=O)N(C)CC(=O)N(C)[C@@H](C(C)C)C(=O)O[C@H]4C)c3nc-2c(C(=O)N[C@@H]2C(=O)N[C@H](C(C)C)C(=O)N3CCC[C@H]3C(=O)N(C)CC(=O)N(C)[C@@H](C(C)C)C(=O)O[C@H]2C)c(N)c1=O` had an IC50 in the assay on NCI-H295R [1] of 0.376 µM. The maximal response with NCI-H295R [2] was -113%.
As for `OC(=O)[C@]3(C)C[C@H]4/C5=C/C(=O)[C@H]2[C@@](C)(CC[C@@H]1[C@]2(C)CC[C@H](O)C1(C)C)[C@]5(C)CC[C@@]4(C)CC3`, the maximal response with NCI-H295R [2] is -50.7%. Besides, in the assay with NCI-H295R [3], the IC50 is more than 46 µM.
For the molecule `CCOc1ccc(Cc2nccc3cc(OCC)c(OCC)cc23)cc1OCC.Cl`, the maximal response with NCI-H295R [2] is -39.5%.
Same read-out and setting: for `COc1cc(CNC(=O)CCCC/C=C/C(C)C)ccc1O` the value was -21.6%.
The same measure, in the same setting: for `COC(CNC(=O)c1ccccc1OCC(=O)O)[CH2][Hg][OH]` (configuration not stated) the value was 29%; for `COC(=O)c1ccccc1C(=O)c1ccc(OCCN2CCCCC2)cc1.Cl`, -26.8%; for `O=[N+]([O-])c1c(Cl)cccc1-c1c[nH]cc1Cl`, -29.2%.
As to `COc1c(C)c2c(c(O)c1CC=C(C)CCC(=O)OCCN1CCOCC1)C(=O)OC2`, the maximal response in the assay on NCI-H295R [2] is -54.6%.
Still for that read-out and setting: the result for `CCOC(=O)[C@@H](CCc1ccccc1)N[C@@H]1CCc2ccccc2N(CC(=O)O)C1=O.Cl` reads -30.1%; that for `CC(=O)Oc1ccc2c(c1)CC[C@@H]1[C@@H]2CC[C@]2(C)[C@@H](O)CC[C@@H]12`, -30.8%.
On to `C[C@]12CC[C@@H]3c4ccc(O)cc4CC[C@H]3[C@@H]1CC[C@@H]2OC(=O)CCC1CCCC1`, for which the maximal response in the assay on NCI-H295R [2] is -33.7%. Moreover, the IC50 with NCI-H295R [3] is more than 46 µM.
For the molecule `O=C(N[C@@H](c1ccccc1)[C@@H](O)C(=O)O[C@H]3C[C@@]4(O)[C@@H](OC(=O)c2ccccc2)[C@@H]5[C@]6(OC(C)=O)CO[C@@H]6C[C@H](O)[C@@]5(C)C(=O)[C@H](OC(C)=O)\C(=C3/C)C4(C)C)c7ccccc7`, the maximal response in the assay on NCI-H295R [2] was -55.9%.
Still for that read-out and setting: for `C[C@]12C/C(=C/O)C(=O)C[C@@H]1CC[C@@H]1[C@@H]2CC[C@@]2(C)[C@H]1CC[C@]2(C)O` the value was -34.1%; for `CCCOc1ccc2[nH]c(NC(=O)OC)nc2c1`, -48.4%.
